Data: paper PMC4683377, “BODIPY-Based Fluorescent Probes for Sensing Protein Surface-Hydrophobicity” (Scientific Reports, 2015)
pKd: −log10 of the molar value.

Columns and labels:
apomyoglobin (ApoMb) = molecular target: T1, apomyoglobin (ApoMb) (Equus caballus, UniProt P68082); test: fluorescence titration ([…] dye, protein varied); format: binding
T1 construct: gene MB; apo form (heme removed) prepared from equine myoglobin

[1] = molecular target: T2, bovine serum albumin (BSA) (Bos taurus, UniProt P02769); test: fluorescence titration ([…] dye, protein varied); format: binding
T2 construct: gene ALB
T2 sequence (P02769 25-607): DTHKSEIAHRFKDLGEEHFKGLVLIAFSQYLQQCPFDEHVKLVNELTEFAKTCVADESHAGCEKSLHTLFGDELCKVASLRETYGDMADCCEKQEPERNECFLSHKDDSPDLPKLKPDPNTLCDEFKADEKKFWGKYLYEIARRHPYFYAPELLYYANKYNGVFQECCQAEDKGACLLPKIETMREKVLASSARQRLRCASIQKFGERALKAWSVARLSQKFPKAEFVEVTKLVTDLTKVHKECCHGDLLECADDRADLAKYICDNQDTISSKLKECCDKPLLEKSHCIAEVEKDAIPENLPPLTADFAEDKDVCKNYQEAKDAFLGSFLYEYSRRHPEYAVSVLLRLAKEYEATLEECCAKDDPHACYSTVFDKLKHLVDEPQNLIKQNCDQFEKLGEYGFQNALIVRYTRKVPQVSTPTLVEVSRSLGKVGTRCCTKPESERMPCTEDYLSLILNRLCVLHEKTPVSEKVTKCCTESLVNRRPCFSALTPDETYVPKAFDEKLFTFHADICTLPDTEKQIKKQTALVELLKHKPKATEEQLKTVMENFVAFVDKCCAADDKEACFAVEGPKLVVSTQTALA

T1 sequence (P68082 2-154): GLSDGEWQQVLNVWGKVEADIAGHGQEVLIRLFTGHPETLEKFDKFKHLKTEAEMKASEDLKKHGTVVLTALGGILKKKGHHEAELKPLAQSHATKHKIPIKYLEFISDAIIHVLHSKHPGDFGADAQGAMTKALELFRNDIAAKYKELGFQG

pKd (apomyoglobin (ApoMb)): 6.48 | pKd [1]: 7.47
Compound: COCCNC1=[N+]2C(=C(c3ccc(OC)cc3)c3ccc(NCCOC)n3[B-]2(F)F)C=C1 [compound 2, HPsensor 2]
